Patent publication US6362341B1, “Benzyl compounds which inhibit leukocyte adhesion mediated by VLA-4” (Athena Neurosciences, Inc., priority 1997, dated 2002)
Non-standard residues stand in square brackets, D forms with d. Residues, ends and D or L forms follow the SMILES beside them. *: point of attachment. Tos = Cc1ccc(S(=O)(=O)*)cc1; Thz = O=C(O)[C@@H]1CSCN1

Experiments:
[1] = tested on: Experimental Autoimmune Encephalomyelitis (EAE) model, motor impairment; assay: In vivo evaluation - Experimental Autoimmune Encephalomyelitis (EAE); set-up: species or system Lewis rats or Hartley guinea pigs; details: active = delayed onset of symptoms, e.g. clinical scores no greater than 2 or slowed body weight loss as compared to the control; treatment from Day 8, bid, five days

Compound | melting point | activity in EAE model (delay of onset of symptoms) [1]
Cc1ccc(S(=O)(=O)N2CCC[C@H]2C(=O)NC(Cc2nc[nH]n2)C(=O)O)cc1 (mixture of isomers) [Example 66, N-(Toluene-4-sulfonyl)-L-prolyl-D,L-β-(1,2,4-triazol-3-yl)alanine] | 153 to 163 °C | 
Cc1ccc(S(=O)(=O)N2CCC[C@H]2C(=O)N[C@@H](Cc2ccccc2)C(=O)O)cc1 [Example 3, N-(Toluene-4-sulfonyl)-L-prolyl-L-phenylalanine] (Tos-Pro-Phe-OH) |  | active
Cc1ccc(S(=O)(=O)N2CCC[C@H]2C(=O)NC(Cc2ccccc2)C(=O)NCCC(=O)O)cc1 (mixture of isomers) [Example 45, N-(Toluene-4-sulfonyl)-L-prolyl-D,L-phenylalanyl-β-alanine] | 91 to 95 °C | 
Cc1ccc(S(=O)(=O)N2CCC[C@H]2C(=O)N[C@@H](Cc2ccccc2)C(=O)NOCc2ccccc2)cc1 [Example 43, N-(Toluene-4-sulfonyl)-L-prolyl-L-phenylalanine N-Benzyloxyamide] | 127 to 130 °C | 
O=C(O)[C@H](Cc1ccccc1)NC(=O)[C@@H]1CCCN1S(=O)(=O)c1ccc([N+](=O)[O-])cc1 [Example 27, N-(4-Nitrobenzenesulfonyl)-L-prolyl-L-phenylalanine] | 70 to 80 °C | 
Cc1ccc(S(=O)(=O)N2CSC[C@H]2C(=O)N[C@@H](Cc2ccccc2)C(=O)O)cc1 [Example 20, N-(Toluene-4-sulfonyl)-L-thiaprolyl-L-phenylalanine] (Tos-[Thz]-Phe-OH) | 60 to 65 °C | 
COC(=O)c1ccccc1S(=O)(=O)N1CCC[C@H]1C(=O)N[C@@H](Cc1ccccc1)C(=O)O [Example 18, N-(2-Methoxycarbonylbenzenesulfonyl)-L-prolyl-L-phenylalanine] | 163 to 165 °C | 
O=C(O)[C@H](Cc1ccccc1)NC(=O)[C@@H]1CCCN1S(=O)(=O)c1ccc(Cl)cc1 [Example 10, N-(4-Chlorobenzenesulfonyl)-L-prolyl-L-phenylalanine] | 69 to 71 °C | 
